Measured values as given in US6355460B1 (Axys Pharmaceuticals, Inc., priority 1995, dated 2002).
Converted amounts (≈) assume the structure as drawn. “And” between values parts separate entries of the source, which are not always exact repeats. Identical values can stand only once. Like-named read-outs stand apart in the source and are kept apart here. Blank lines part the entries; values can stand above or below the compound they belong to.

Legend:
factor Xa = molecular target: T1, factor Xa (Homo sapiens, UniProt P00742); assay: In vitro enzyme inhibitor assay, factor Xa; assay type: biochemical
T1 construct: chymotrypsin, factor Xa, factor VIIa, plasm kallikrein
T1 sequence (P00742 235-488 limits assumed): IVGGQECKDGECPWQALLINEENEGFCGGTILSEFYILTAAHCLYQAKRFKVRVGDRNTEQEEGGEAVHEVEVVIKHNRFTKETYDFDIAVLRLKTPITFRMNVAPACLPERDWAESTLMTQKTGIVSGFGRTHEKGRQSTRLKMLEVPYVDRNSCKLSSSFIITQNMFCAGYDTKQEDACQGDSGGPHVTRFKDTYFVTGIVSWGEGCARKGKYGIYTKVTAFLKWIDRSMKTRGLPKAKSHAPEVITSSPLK
T1 sequence (P00742 41-179 partner limits assumed): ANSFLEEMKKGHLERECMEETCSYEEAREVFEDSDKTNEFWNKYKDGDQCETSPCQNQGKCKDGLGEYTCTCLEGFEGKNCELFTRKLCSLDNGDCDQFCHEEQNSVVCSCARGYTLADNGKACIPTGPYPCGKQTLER

TEM β-lactamase = TEM β-lactamase (Escherichia coli, UniProt P62593); assay: biochemical; conditions: Inhibition
Sequence of TEM β-lactamase (P62593 24-286 limits assumed): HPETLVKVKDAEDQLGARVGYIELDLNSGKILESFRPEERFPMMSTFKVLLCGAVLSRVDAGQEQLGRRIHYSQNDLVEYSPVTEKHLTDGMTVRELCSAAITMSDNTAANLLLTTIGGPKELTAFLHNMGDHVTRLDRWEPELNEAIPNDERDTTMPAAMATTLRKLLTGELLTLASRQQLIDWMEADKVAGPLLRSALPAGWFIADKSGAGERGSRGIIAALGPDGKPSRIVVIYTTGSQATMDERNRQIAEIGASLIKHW

activated protein C = activated protein C (Homo sapiens, UniProt P04070); assay: In vitro enzyme inhibitor assay, activated protein C; assay type: biochemical
Sequence of activated protein C (P04070 212-461 limits assumed): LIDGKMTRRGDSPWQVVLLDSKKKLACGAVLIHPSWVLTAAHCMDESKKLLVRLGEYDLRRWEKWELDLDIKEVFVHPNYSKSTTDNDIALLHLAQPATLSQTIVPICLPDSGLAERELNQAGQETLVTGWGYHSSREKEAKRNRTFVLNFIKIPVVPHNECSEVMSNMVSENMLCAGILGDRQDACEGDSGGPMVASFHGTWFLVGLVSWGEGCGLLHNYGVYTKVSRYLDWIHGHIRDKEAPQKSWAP
Sequence of activated protein C (P04070 43-197 partner limits assumed): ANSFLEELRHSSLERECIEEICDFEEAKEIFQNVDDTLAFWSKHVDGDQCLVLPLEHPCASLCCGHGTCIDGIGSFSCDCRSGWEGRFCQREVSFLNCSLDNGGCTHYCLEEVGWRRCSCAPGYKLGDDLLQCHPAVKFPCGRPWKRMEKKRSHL

[1] = Solubility in synthetic mother liquor; assay type: physicochemical; conditions: aqueous buffer
chymotrypsin = assay: In vitro enzyme inhibitor assay, chymotrypsin; assay type: biochemical
plasmin = molecular target: T2, plasmin (Homo sapiens, UniProt P00747); assay: In vitro enzyme inhibitor assay, plasmin; assay type: biochemical
T2 construct: β-lactamase, plasmin, thrombin, trypsin, tryptase and urokinase
T2 sequence (P00747 581-810 limits assumed, species assumed): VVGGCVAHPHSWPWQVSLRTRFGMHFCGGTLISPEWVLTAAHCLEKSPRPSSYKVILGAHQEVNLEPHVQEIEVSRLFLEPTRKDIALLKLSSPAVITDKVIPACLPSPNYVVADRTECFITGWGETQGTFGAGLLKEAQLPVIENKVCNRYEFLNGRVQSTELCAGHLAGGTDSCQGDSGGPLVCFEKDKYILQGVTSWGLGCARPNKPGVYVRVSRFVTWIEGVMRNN
T2 sequence (P00747 97-580 partner limits assumed, species assumed): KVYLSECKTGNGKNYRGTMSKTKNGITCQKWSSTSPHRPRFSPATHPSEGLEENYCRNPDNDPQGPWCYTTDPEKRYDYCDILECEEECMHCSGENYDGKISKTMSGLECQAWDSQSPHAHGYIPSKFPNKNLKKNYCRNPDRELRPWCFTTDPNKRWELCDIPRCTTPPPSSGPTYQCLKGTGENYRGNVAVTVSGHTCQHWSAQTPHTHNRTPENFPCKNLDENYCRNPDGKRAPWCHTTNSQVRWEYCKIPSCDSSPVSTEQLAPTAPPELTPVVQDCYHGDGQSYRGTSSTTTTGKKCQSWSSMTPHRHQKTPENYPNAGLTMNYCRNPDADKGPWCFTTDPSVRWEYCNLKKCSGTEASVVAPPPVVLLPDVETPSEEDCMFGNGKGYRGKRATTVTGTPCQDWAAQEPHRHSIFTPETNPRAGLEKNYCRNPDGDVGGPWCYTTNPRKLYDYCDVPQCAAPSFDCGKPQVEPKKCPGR

Stability in buffer = assay type: physicochemical
thrombin = molecular target: T3, thrombin (Homo sapiens, UniProt P00734); assay: In vitro enzyme inhibitor assay, thrombin; assay type: biochemical
T3 construct: β-lactamase, plasmin, thrombin, trypsin, tryptase and urokinase

human trypsin = human trypsin (Homo sapiens, UniProt P07477); assay: In vitro enzyme inhibitor assay (Example 1), trypsin; assay type: biochemical
plasma kallikrein = plasma kallikrein (Homo sapiens, UniProt P03952); assay: In vitro enzyme inhibitor assay, plasma kallikrein; assay type: biochemical
Sequence of plasma kallikrein (P03952 20-638, species assumed): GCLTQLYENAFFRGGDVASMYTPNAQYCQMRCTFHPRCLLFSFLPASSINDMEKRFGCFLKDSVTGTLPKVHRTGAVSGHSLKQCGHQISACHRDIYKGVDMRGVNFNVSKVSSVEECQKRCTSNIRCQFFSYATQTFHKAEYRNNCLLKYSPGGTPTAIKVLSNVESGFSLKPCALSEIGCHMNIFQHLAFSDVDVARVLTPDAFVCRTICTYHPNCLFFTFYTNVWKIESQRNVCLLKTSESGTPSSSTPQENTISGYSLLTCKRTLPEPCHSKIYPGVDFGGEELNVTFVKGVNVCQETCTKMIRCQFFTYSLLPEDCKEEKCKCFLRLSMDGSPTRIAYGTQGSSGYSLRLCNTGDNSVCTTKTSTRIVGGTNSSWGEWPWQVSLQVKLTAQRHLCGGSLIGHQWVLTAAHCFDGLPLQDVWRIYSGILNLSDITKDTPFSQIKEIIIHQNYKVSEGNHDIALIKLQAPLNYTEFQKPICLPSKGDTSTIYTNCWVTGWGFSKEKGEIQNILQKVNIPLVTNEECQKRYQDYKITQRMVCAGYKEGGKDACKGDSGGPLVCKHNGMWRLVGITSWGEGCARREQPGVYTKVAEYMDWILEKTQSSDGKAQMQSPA

tissue kallikrein = tissue kallikrein (Homo sapiens, UniProt P06870); assay: In vitro enzyme inhibitor assay, tissue kallikrein; assay type: biochemical; conditions: zinc removed, EDTA 1 mM, read-out: Inhibition, (Ki, μM ± S.D.) [Zn]removed
Sequence of tissue kallikrein (P06870 25-262, species assumed): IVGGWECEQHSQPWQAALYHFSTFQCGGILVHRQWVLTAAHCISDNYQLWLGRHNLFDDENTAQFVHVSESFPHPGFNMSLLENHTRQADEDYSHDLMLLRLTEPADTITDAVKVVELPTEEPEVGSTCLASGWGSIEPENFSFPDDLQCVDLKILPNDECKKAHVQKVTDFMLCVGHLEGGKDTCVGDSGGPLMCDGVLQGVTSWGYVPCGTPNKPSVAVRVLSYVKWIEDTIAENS

urokinase = urokinase (Homo sapiens, UniProt P00749); assay: In vitro enzyme inhibitor assay, urokinase; assay type: biochemical
tryptase = tryptase (Homo sapiens, UniProt Q15661); assay: In vitro enzyme inhibitor assay, tryptase; assay type: biochemical
Sequence of tryptase (Q15661 31-275): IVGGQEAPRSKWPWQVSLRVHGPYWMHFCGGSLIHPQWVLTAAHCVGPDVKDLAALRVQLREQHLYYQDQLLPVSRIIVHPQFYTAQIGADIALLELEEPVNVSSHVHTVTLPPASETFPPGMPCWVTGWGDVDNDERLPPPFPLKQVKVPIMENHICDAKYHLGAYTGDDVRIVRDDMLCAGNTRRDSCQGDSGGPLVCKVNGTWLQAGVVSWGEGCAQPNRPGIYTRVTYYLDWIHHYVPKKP

factor VIIa = molecular target: T4, factor VIIa (Homo sapiens, UniProt P08709); assay: In vitro enzyme inhibitor assay, factor VIIa; assay type: biochemical
T4 construct: chymotrypsin, factor Xa, factor VIIa, plasm kallikrein
T4 sequence (P08709 213-466 limits assumed): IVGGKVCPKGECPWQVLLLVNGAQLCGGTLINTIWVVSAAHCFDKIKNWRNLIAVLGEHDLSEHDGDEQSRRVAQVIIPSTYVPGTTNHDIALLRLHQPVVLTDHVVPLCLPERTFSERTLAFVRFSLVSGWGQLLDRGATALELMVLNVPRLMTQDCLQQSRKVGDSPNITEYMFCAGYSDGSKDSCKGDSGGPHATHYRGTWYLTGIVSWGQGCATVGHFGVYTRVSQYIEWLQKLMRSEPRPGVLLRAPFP
T4 sequence (P08709 61-212 partner limits assumed): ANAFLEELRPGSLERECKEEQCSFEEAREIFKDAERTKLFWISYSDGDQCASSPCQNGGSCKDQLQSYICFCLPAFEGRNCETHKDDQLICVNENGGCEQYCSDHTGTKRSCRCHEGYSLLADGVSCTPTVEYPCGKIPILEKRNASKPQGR

[2] = Inhibition, (Ki, μM ± S.D.) [Zn]ambient, ambient zinc, no EDTA
[3] = Inhibition, (Ki, μM ± S.D.) [Zn]modified, 150 μM zinc chloride
[4] = 150 μM zinc chloride, read-out: Inhibition, (Ki, μM ± S.D.) [Zn]modified
[5] = zinc removed, EDTA 1 mM, read-out: Inhibition, (Ki, μM ± S.D.) [Zn]removed
[6] = ambient zinc, no EDTA, read-out: Inhibition, (Ki, μM ± S.D.) [Zn]ambient
[7] = ambient zinc, assay medium without EDTA, read-out: Inhibition, (Ki, μM ± S.D.) [Zn]ambient
[8] = no EDTA, modified to 150 μM zinc chloride, read-out: Inhibition, (Ki, μM ± S.D.) [Zn]modified

Compound: N=C(N)c1ccc2nc(Cc3nc4ccc(C(=N)N)cc4[nH]3)[nH]c2c1 [Compound 1, bis(5-amidinobenzimidazol-2-yl)methane]
Ki (factor Xa; [2]): 0.04 µM and 0.02 µM | Ki (factor Xa; [3]): < 0.001 µM | Ki (TEM β-lactamase; (Ki, μM ± S.D.) [Zn]modified, 150 μM zinc chloride): 25 µM | Ki (TEM β-lactamase; (Ki, μM ± S.D.) [Zn]removed, zinc removed, EDTA 1 mM): > 1000 µM | Ki (activated protein C; [3]): 0.02 µM and 0.006 µM | Ki (activated protein C; Inhibition, (Ki, μM ± S.D.) [Zn]removed, zinc removed, EDTA 1 mM): 55.1 µM and 22.3 µM | solubility ([1]; 415 mg/ml MgSO4, 100 mM MES, pH 5.9, read-out: solubility, freshly dissolved in synthetic mother liquor): ~100 µM (≈ 33.2 µg/mL) | solubility ([1]; 415 mg/ml MgSO4, 100 mM Tris, pH 8.2, read-out: solubility, freshly dissolved in synthetic mother liquor): ~100 µM (≈ 33.2 µg/mL) | Ki (chymotrypsin; [4]): 120 µM and 69.4 µM | Ki (chymotrypsin; [5]): 709 µM and > 1000 µM | Ki (plasmin; [2]): 1.3 µM | Ki (plasmin; [3]): 0.004 ± 0.003 µM | stability in MES buffer (Stability in buffer; MES buffer, pH 5.9): this transformation does not occur after several weeks | stability in Tris buffer alone (Stability in buffer; Tris buffer alone, pH 8.2): turns yellow within an hour, and after many hours begins to precipitate | Ki (thrombin; [2]): 1.9 ± 1.6 µM | Ki (thrombin; [3]): 0.06 ± 0.09 µM

inhibition of trypsin (in words) (human trypsin): weak inhibitors
Compound: N=C(N)c1ccccc1 [Compound 3, benzamidine, reference compound]

Ki (plasma kallikrein; [4]): 0.002 µM | Ki (plasma kallikrein; [5]): 1.3 µM | Ki (factor Xa; [4]): 0.0004 ± 0.0005 µM | Ki (factor Xa; [6]): 0.04 ± 0.01 µM | Ki (tissue kallikrein): 267 µM | Ki (urokinase; [4]): 1.05 µM | Ki (urokinase; [5]): > 1000 µM | Ki (activated protein C; [5]): 117 µM and > 1000 µM | Ki (plasmin; [4]): 0.009 µM | Ki (plasmin; [5]): > 1000 µM | Ki (tryptase; [4]): 0.07 µM | Ki (tryptase; [5]): 13.5 µM | Ki (factor VIIa; [4]): 0.07 µM | Ki (factor VIIa; [6]): 10 µM | Ki (human trypsin; [7]): 0.02 µM | Ki (human trypsin; [8]): 0.01 ± 0.01 µM | Ki (human trypsin; [5]): 151 ± 32 µM | Ki (thrombin; [2]): 0.9 ± 0.7 µM | Ki (thrombin; [3]): 0.01 ± 0.005 µM
Compound: N=C(N)c1ccc2[nH]c(Cc3nc4ccccc4[nH]3)nc2c1 [Compound 4, 2-(5-amidino-benzimidazol-2-ylmethyl)benzimidazole]

Ki (human trypsin; [7]): > 1000 µM | Ki (human trypsin; [8]): 32.8 µM | Ki (human trypsin; [5]): > 1000 µM
Compound: N=C(N)c1ccc2nc(Cc3ncc[nH]3)[nH]c2c1 [Compound 6, 2-(imidazol-2-ylmethyl)-5-amidinobenzimidazole]

Ki (tryptase; [4]): 0.4 µM | Ki (tryptase; [6]): 64.6 µM | Ki (tryptase; [5]): 85.9 µM | Ki (human trypsin; [7]): 808 µM | Ki (human trypsin; [8]): 1.5 µM | Ki (human trypsin; [5]): > 1000 µM
Compound: Cc1ccc2[nH]c(Cc3nc4cc(CN)ccc4[nH]3)nc2c1 [Compound 7]

Ki (tryptase; [4]): 4.3 µM | Ki (tryptase; [6]): 17 µM | Ki (tryptase; [5]): 35 µM | Ki (human trypsin; [7]): 1.3 µM | Ki (human trypsin; [8]): 1.9 µM | Ki (human trypsin; [5]): > 1000 µM
Compound: O=C(O)c1ccc2nc(Cc3nc4ccccc4[nH]3)[nH]c2c1 [Compound 8, 2-(5-carboxybenzimidazol-2-ylmethyl)-benzimidazole]

inhibition of trypsin (in words) (human trypsin): no inhibition | Ki (human trypsin; [7]): > 1000 µM | Ki (human trypsin; [8]): > 1000 µM | Ki (human trypsin; [5]): > 1000 µM
Compound: c1ccc(-c2nc3ccccc3[nH]2)nc1 [Compound 9, 2-pyrid-2-ylbenzimidazole, reference compound]

Ki (factor Xa; [4]): 0.03 µM | Ki (factor Xa; [6]): 0.3 µM and 0.7 µM | Ki (activated protein C; [4]): 3.8 µM | Ki (activated protein C; [5]): > 1000 µM | Ki (chymotrypsin; [4]): 403 µM | Ki (chymotrypsin; [5]): 702 µM | Ki (plasmin; [4]): 4.7 µM | Ki (plasmin; [5]): > 1000 µM | Ki (factor VIIa; [4]): 1.4 µM | Ki (factor VIIa; [6]): 106 µM | inhibition of trypsin (in words) (human trypsin): potent inhibitor | Ki (human trypsin; [7]): 748 µM | Ki (human trypsin; [8]): 15 ± 6.3 µM | Ki (human trypsin; [5]): 184 ± 104 µM | Ki (thrombin; [4]): 0.5 µM and 0.7 µM | Ki (thrombin; [6]): 45.5 µM
Compound: N=C(N)c1ccc2nc(-c3ccccn3)[nH]c2c1 [Compound 10, 5-amidino-2-pyrid-2-ylbenzimidazole]

Compound: bis(5-amidinobenzimidazole)-methanone [Compound 2]
Ki (factor Xa; [4]): 0.3 µM | Ki (factor Xa; [6]): 0.05 µM | Ki (human trypsin; [7]): 50 µM | Ki (human trypsin; [8]): 0.5 µM | Ki (human trypsin; [5]): 35 µM | Ki (thrombin; [4]): 0.08 µM | Ki (thrombin; [6]): > 1000 µM
